One test has as its system E. coli (ATCC 35150). The test is described as follows: E. coli viability on spinach leaves after plasma-activated mist exposure. In kind it is cell-based. To be noted: no plasma mist. As to the method: E. coli (ATCC 35150) cultures were grown to stationary phase in tryptic soy broth (TSB; Difco, Becton Dickinson, Franklin Lakes, N.J.). Aliquots of the prepared cultures were mixed into a volume of sterile Milli-Q water (Millipore, Billerica, Mass.) that yields an overall bacterial inoculum percentage of 2%. Thirty microliter aliquots of the bacterial culture were used to spot inoculate regions on the leaf surface of each leaf sample. Cultures were air dried on the leaf samples for 1 hour.
An Ultrasonic 360 humidifier (Safety 1st; Columbus, Ind.) was connected to plastic tubing and fed into a custom small-scale plasma generator. The plasma configuration consisted of two parallel brass plate electrodes that have an area of 40 mm×45 mm and thickness of 5 mm. Polyetherimide was used as the housing material for the electrodes. The upper electrode was connected to a high voltage power supply (1-20 kV) with operating parameters that can be adjusted while the lower electrode is grounded. The adjustable outlet of the setup released plasma-activated water mist onto inoculated leaves fixed 2 mm beneath the opening. Plasma-activated water mist was applied to the inoculated leaves at intervals from 15 seconds to 2 minutes. […]
Bacterial viability was […]. […] Data was analyzed using GraphPad Prism and InStat graphical and statistical software (GraphPad Software, Inc., La Jolla, Calif.). […]

Another test concerns S. aureus. The test is described as follows: S. aureus viability on spinach leaves after plasma-activated mist exposure. In kind it is cell-based. To be noted: no plasma mist.

For `O=CC=Cc1ccccc1` [cinnamaldehyde], in the test with E. coli (ATCC 35150), the “log10 reduction of E. coli caused by additive alone” value was < 0.4. For the same molecule, in the test on S. aureus, the “log10 reduction of S. aureus caused by additive alone” value is “less than 0.2”.

For the origin of these results see US20160015038A1, “TREATED CROP PLANTS OR PLANT FOOD PRODUCTS WITH DECREASED BACTERIAL VIABILITY AND METHODS AND APPARATUSES FOR MAKING THE SAME” (EP Technologies LLC, priority 2014, published 2016).
